The source of these data is article PMC11997890, “In Vivo and In Vitro Pharmacokinetic Studies of a Dual Topoisomerase I/II Inhibitor” (ACS Pharmacology & Translational Science, 2025).

What is called IC50 is the concentration that gives 50% inhibition.

The structures appear in SMILES notation.

The test system of data set [1] is kidney tissue (γH2AX, c-PARP, OGG1). In words: In vivo tolerability and immunohistochemistry of tissue damage markers. Set-up: species or system Sprague–Dawley rats. The text has this:
Organs were immunostained with antibodies to detect reactive oxygen species, DNA damage, and caspase levels, not showing abnormalities in the liver, lungs, spleen, kidneys, and colon (Figure E).
OGG1, a marker for oxidative DNA damage produced by reactive oxygen species, was expressed weakly in the background and cytoplasm of the negative control samples of kidney tissue. […] No specific immunohistochemical reactions could be observed for the other organs.
Tissues were fixed with 4% formaldehyde and dehydrated with an ethanol series before embedding in paraffin. Tissue sections were cut using a microtome; the tissue sections were deparaffinized and rehydrated in water. Hematoxylin and eosin (H and E) staining was carried out on a Tissue Tek Prisma Plus autostainer (SAKURA). For immunohistochemistry, sections were stained with antibodies directed against γH2AX (Cell Signaling #9718, dilution 1:200, DNA-damage), OGG1 (Proteintech #15125-1-AP, dilution 1:200, DNA-damage), and c-PARP (Abcam #ab32064, dilution 1:200, DNA-damage). […] The immunoreaction was visualized with the Bond Polymer Refine Detection Kit (DS 9800; brown labeling; Novocastra; Leica Biosystems GmbH), resulting in a brown color and counterstained with hematoxylin. The IHC stainings were carried out on the autostainer BOND RX system (Leica Biosystems GmbH). The stained tissue sections were digitalized with a NanoZoomer S60 Digital slide scanner (Hamamatsu) at a 40× magnification objective and analyzed by board-certified pathologists. The samples from three mice were analyzed.

A further data set deals with T1, CYP3A4 (Homo sapiens, UniProt P08684).
T1 construct: host or cells: human liver microsomes (one value) / recombinant CYP enzyme (other value)
As to the kind of experiment: In vitro CYP inhibition, marker substrate testosterone. It is filed as in vitro ADME. As for the experimental part:
To assess metabolizing enzyme-mediated drug interactions, P8-D6 was incubated with human liver (HLM) or recombinant CYP enzymes and the respective marker substrate according to the FDA (with the exception of using amitriptyline instead of S-mephenytoin). −
However, as some conversions were catalyzed by several enzymes, the conversion rates in HLM increased (e.g., bupropion and diclofenac).
To examine a possible in vitro CYP inhibition, the following CYP enzymes and marker substrates were investigated according to the FDA: , phenacetin (CYP1A2), bupropion (CYP2B6), amodiaquine (CYP2C8), diclofenac (CYP2C9), amitriptyline (CYP2C19), dextromethorphan (CYP2D6), testosterone (CYP3A4), and nifedipine (CYP3A4). Incubation was performed in a 0.2 mL reaction mix consisting of PBS buffer (pH 7.4), 1 mM marker substrate, 1 mM NADPH, and either 0.5 mg/mL recombinant CYP enzyme or human liver microsomes. P8-D6 was added for a final concentration of 0.5 μM, 1 μM, 5 μM, 10 μM, 25 μM, 50 μM, 100 μM, 500 μM, 1000 μM, and (in some cases) 5000 μM. Sample preparation was performed according to in vitro biotransformation.

The target in the next data set is T2, human α2-HS glycoprotein (Homo sapiens, UniProt P02765).
T2 construct: purchased Merck KGaA, Darmstadt G0516
In words: Binding to isolated plasma protein by ultrafiltration. As to the method: (§1) To examine the effect of the P8-D6 plasma protein binding on the in vivo bioavailability, human and rat plasma was spiked in vitro and incubated with P8-D6. By using ultrafiltration to separate free P8-D6 from the protein-bound fraction, a plasma protein binding of 99% (Figure A) was estimated. However, neither human α-1-microglobulin (3.06%) nor human serum albumin (0.91%) is responsible for binding. According to initial findings, γ-globulins (94.59%), human transferrin (90.43%), LDL (87.99%), human α2-HS glycoprotein (85.29%), and human fibrinogen (78.89%) lead to binding of P8-D6.
(§2) To examine the extent of plasma protein binding, 150 μL of blank samples of human plasma (1 mM) and rat plasma (1 mM), human albumin (1 mM, #A1653, Merck KGaA, Darmstadt); human α1-acid glycoprotein (1 mM; #G9885, Merck KGaA, Darmstadt); human α2-HS-glycoprotein (0.1 mM; #G0516, Merck KGaA, Darmstadt); human transferrin (0.2 mM; #T8158, Merck KGaA, Darmstadt); human fibrinogen (0.2 mM; #F3879, Merck KGaA, Darmstadt); LDL (0.2 mM; […]); and human γ-globulin (1 mM; #G4386, Merck KGaA, Darmstadt) were spiked with P8-D6 in the same final concentration as the protein and incubated in a shaking water bath at 37 °C for 120 min. Afterward, the unbound fraction of P8-D6 was separated by ultrafiltration (Vivaspin 500 10 000 MWCO filter). The sample preparation was performed according to plasma samples. Blank plasma samples served as the control samples.

The next data set concerns the target T3, human fibrinogen (Homo sapiens, UniProt P02671+P02675+P02679).
T3 construct: purchased Merck KGaA, Darmstadt F3879
The description is as above. As for the experimental part:
as §1, §2

Another data set deals with T4, human transferrin (Homo sapiens, UniProt P02787).
T4 construct: purchased Merck KGaA, Darmstadt T8158
The description is as above. As for the experimental part:
as §1, §2

T1 sequence (P08684 whole entry): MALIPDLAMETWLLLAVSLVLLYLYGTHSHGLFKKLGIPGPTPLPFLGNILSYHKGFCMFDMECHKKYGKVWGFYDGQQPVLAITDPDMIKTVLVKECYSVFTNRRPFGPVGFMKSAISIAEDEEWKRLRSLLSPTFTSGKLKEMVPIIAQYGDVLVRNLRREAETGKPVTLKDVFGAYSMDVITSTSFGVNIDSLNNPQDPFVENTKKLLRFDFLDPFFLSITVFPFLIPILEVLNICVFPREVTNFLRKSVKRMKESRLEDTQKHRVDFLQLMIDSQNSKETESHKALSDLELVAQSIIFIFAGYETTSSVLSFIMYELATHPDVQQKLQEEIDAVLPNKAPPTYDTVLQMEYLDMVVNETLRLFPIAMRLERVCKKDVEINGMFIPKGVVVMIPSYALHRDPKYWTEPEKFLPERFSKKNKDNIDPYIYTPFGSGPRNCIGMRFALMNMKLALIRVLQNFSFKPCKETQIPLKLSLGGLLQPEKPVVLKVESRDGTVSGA
T4 sequence (P02787 20-698): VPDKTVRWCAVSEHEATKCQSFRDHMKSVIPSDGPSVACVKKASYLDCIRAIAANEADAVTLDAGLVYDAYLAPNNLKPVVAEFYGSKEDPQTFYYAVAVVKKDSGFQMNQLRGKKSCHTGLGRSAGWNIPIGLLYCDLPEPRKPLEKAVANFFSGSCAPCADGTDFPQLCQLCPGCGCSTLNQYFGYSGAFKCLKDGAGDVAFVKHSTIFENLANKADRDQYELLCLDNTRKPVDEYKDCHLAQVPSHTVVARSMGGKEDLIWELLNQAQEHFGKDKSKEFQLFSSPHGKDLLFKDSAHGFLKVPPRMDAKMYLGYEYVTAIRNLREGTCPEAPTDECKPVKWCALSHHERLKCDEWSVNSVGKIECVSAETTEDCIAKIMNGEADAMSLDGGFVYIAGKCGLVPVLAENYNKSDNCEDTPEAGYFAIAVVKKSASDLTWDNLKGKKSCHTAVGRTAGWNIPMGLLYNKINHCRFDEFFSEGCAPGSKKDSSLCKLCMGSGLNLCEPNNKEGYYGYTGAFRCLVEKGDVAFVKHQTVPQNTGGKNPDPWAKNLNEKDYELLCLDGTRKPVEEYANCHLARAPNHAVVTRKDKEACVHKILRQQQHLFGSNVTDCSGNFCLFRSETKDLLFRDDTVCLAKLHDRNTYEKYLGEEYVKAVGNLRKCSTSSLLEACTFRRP
T2 sequence (P02765 19-367): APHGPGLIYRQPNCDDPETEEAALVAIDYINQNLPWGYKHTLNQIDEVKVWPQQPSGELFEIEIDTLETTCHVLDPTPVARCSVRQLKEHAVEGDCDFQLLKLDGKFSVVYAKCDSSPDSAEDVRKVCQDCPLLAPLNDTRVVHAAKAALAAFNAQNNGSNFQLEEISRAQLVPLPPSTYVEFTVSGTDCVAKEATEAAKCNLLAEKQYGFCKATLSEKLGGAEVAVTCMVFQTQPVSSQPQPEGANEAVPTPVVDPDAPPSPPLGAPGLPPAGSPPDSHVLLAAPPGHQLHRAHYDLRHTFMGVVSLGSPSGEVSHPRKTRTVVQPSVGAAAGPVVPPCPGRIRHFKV
T3 sequence (P02671 20-629 limits assumed): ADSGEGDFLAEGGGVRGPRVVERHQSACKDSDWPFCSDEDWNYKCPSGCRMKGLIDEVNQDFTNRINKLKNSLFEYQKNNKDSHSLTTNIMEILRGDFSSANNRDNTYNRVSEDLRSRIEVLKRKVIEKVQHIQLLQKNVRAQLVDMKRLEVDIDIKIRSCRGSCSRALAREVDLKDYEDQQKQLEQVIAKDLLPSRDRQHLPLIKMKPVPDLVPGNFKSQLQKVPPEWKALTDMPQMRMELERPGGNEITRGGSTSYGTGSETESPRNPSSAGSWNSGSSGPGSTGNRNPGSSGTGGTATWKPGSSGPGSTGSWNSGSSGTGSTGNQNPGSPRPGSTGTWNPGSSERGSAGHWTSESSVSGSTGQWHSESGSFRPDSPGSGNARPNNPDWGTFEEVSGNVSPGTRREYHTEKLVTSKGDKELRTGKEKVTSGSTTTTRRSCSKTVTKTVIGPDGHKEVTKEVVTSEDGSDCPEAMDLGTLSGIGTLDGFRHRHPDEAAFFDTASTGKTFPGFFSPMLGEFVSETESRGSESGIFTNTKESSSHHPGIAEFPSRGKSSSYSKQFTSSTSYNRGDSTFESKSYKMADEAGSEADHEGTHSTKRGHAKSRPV
T3 sequence (P02675 31-491): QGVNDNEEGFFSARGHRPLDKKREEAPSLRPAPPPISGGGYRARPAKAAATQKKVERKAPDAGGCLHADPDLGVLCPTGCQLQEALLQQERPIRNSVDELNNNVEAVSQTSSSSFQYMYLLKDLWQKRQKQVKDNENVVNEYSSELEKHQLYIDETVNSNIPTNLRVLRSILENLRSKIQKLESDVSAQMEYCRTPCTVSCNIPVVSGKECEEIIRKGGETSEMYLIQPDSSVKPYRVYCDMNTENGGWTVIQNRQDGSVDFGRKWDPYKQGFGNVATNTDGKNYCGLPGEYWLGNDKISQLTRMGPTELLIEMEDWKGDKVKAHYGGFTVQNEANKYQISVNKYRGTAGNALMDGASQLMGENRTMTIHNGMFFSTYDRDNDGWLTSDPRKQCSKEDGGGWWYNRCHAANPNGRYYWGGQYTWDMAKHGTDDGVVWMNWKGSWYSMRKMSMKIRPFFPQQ
T3 sequence (P02679 27-433 limits assumed): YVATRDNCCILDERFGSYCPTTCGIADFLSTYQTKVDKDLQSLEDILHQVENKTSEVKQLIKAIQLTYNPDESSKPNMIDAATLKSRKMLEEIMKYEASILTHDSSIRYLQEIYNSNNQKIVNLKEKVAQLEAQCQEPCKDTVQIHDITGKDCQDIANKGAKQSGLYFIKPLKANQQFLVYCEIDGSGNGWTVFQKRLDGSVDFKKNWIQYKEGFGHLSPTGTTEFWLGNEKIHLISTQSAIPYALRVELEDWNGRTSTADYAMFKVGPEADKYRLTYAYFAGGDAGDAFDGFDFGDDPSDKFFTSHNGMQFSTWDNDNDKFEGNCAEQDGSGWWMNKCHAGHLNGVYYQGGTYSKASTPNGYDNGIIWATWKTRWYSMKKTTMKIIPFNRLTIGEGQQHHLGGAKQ

In the case of `COc1cc(-c2cc3ccncc3c3nc(OCCN(C)C)c4cnccc4c23)cc(OC)c1OC` [P8-D6, 6-(N,N-dimethyl-2-aminoethoxy)-11-(3,4,5-trimethoxyphenyl)-pyrido[3,4-c][1,9]-phenanthroline], the “OGG1 immunohistochemistry (oxidative DNA damage)” value in data set [1] (kidney tissue) is “did not significantly differ from the negative control”. In addition, the “γH2AX immunohistochemistry (marker for DNA damage)” value in data set [1] (kidney tissue) is “diffuse positivity”. In data set [1] (p.o. 50 mg/kg BW and i.v. 10 mg/kg BW), the signs of toxicity result is on record as “no signs of toxicity”. Also, the “C-PARP immunohistochemistry (marker of apoptosis)” value in data set [1] (vs positive and negative control) is reported as “no significant difference”. Moreover, the IC50 on CYP3A4 (HLM) was determined as 165 µM; at CYP3A4 (recombinant CYP isoenzyme) it was 94 µM. Further, the figures for the “binding of P8-D6” value on human α2-HS glycoprotein, on human fibrinogen and at human transferrin were 85.29%, 78.89% and 90.43%, respectively.
